Results on four compounds are retold here after US4948880A, “Anthracycline derivatives having cytostatic activity” (Behringwerke Aktiengesellschaft, priority 1986, dated 1990).

The structures appear in SMILES notation. ≈ marks a conversion by molar mass, not a printed value. Like-named read-outs stand apart in the source and are kept apart here.

The conditions of data set [1]: light / sunlight; cited from earlier work.
The test system of data set [2] is mouse L1210 leukemia cells. In words: Formation of L1210 leukemia cell colonies in soft agar (cytostatic activity). The data set is classed as cell-based. To be noted: Mus musculus, colonies > 60 μm, % of untreated control. The procedure: The cytostatic activity of the compounds according to the invention have been tested using mouse L1210 leukemia cells. Use was made for this by the formation of L1210 leukemia cell colonies in agar plates. This method is used to detect the effect of the test substances on the growth behavior of the cells over 1 hour or over several generations. In this connection, with a cell cycle time of 10-12 hours, about 14 consecutive generations are observed in a 7-day duration of the test. In this test, the substances having cytostatic activity according to the invention bring about a reduction, compared with an untreated control sample, in the number of colonies which is to be observed.
Procedure for Determining the Formation of L1210 Leukemia Cell Colonies in Soft Agar
500 leukemia cells per plate were incubated with various concentrations of the test substance at 37° C. for 1 hour. These cells were then washed twice with McCoy 5A medium, 0.3% agar was added, and finally the mixture was poured into Petri dishes. Controls were incubated only with fresh medium. In place of the incubation for one hour, in some cases various concentrations and test substances were mixed with the upper agar layer in order in this way to achieve continuous exposure of the cells throughout the incubation time. After the agar had solidified, the plates were incubated in an incubator at 37° C. for 7 days (5% by volume CO2, 95% relative atmospheric humidity). Thereafter the number of colonies with a diameter of more than 60 μm which had formed was counted. The results have been stated as the number of colonies in treated agar plates as a percentage of the untreated control. The dose-effect graph obtained in this way was used to determine the IC50 as a measure of the activity of the substance. The results for the compounds described here are compiled in Table 1 which follows, comparing with adriamycin.

For `COc1cccc2c1C(=O)c1c(O)c3c(c(O)c1C2=O)C[C@@](O)(C(C)=O)C[C@@H]3O[C@H]1C[C@H](N)[C@H](O)[C@H](C)O1` [daunomycin, 7-O-α-L-daunosaminyl-daunomycinone], the “photolytic decomposition on exposure to light” value (“photolytic decomposition” for short) in data set [1] was “photolytically decomposed on exposure to light”.
The term IC50 denotes the concentration needed to halve the response being measured. Take `COc1cccc2c1C(=O)c1c(O)c3c(c(O)c1C2=O)C[C@@](O)(C(=O)CO)C[C@@H]3O[C@H]1C[C@H](N)[C@H](O)[C@H](C)O1` [Adriamycin, 7-O-α-L-daunosaminyl-adriamycinone, reference compound]: the IC50 in data set [2] (L1210, 168 h, read-out: Continuous incubation IC50, continuous exposure, test substance mixed with upper agar layer, 7 days, 37° C.) turned out to be 0.02 µg/mL (≈ 0.0368 µM); in data set [2] (L1210, read-out: 1 h incubation IC50, 1 hour incubation with test substance at 37° C., then washed, 7 days in agar) it was 0.04 µg/mL (≈ 0.0736 µM). Moreover, the “photolytic decomposition” value in data set [1] was “photolytically decomposed on exposure to light”.
As for `CC[C@@]1(O)C[C@H](O[C@H]2C[C@H](N(C)C)[C@H](O[C@H]3C[C@H](O)[C@H](O[C@H]4CCC(=O)[C@H](C)O4)[C@H](C)O3)[C@H](C)O2)c2c(cc3c(c2O)C(=O)c2c(O)cccc2C3=O)[C@H]1C(=O)OC` [aclacinomycin A], the “photolytic decomposition” value in data set [1] is “undergoes photolytic decomposition to a small extent”.
In the case of `CCCCCN(C)[C@H]1C[C@H](O[C@H]2C[C@](O)(CC)[C@H](O)c3c(O)c4c(c(O)c32)C(=O)c2c(O)ccc(O)c2C4=O)O[C@@H](C)[C@H]1O` [compound 27, 7-O-(3'-N-Methyl-3'-N-pentyl-α-L-daunosaminyl)-β-isorhodomycinone], the IC50 in data set [2] (L1210, 168 h, continuous exposure, test substance mixed with upper agar layer, 7 days, 37° C., read-out: Continuous incubation IC50) was 0.06 µg/mL (≈ 0.0975 µM); in data set [2] (L1210, 1 hour incubation with test substance at 37° C., then washed, 7 days in agar, read-out: 1 h incubation IC50) it was more than 1 µg/mL.
